Tests used:
[1] = system: AML-3 patients; settings: oral, alone; cited from earlier work
[2] = system: human Burkitt's lymphoma (RAJI) cells; assay: Inhibition of proliferation of RAJI cells, MTS assay; assay type: cell-based; settings: 900 mcg/ml, 72 hours, statistically significant, read-out: reduction in number of cells which were active
Procedure: To determine the inhibitory effect of pirfenidone concentrations on Burkitt's lymphoma (RAJI) cells, a MTS assay was used which incorporates a tetrazolium dye that measures the cellular conversion of the dye into a formazan product by the activation of NADH-generating dehydrogenases found in metabolically active cells.
(§1) • 1. 100 microl. of cells was seeded into 96 well plates at 1X10^5 cells/ml in media containing 100 mcg/ml, 300 mcg/ml and 900 mcg/ml of pirfenidone, as well as a pirfenidone-free media control. • 2. Cells were incubated at 37 degrees C, at 5.0% CO2 for 72 hours. • 3. After incubation a standard curve was made of 100 microliters of cells added to the plate at 5X10^5 cells/ml making 1:2 dilutions all the way down to a pre-set degree of dilution. • 4. 2.0 mls of the MTS solution was mixed with a 100 microliter of the PMS solution, and 20 microliters of this combined dye solution was added to each well and incubated at 37 degrees C, 5.0% CO2 for 3 hours. • 5. Subsequently the absorbance was read at 490 nm.

[3] = system: human T-cell leukemia (JURKAT) cells; assay: Inhibition of proliferation of JURKAT cells, MTS assay; assay type: cell-based; settings: 900 mcg/ml, 72 hours, statistically significant, read-out: reduction in number of cell which were active
Procedure: as §1, with “To determine the inhibitory effect of pirfenidone concentrations on human T-cell leukemia (JURKAT), a MTS assay was used which incorporates a tetrazolium dye that measures the cellular conversion of the dye into a formazan product by the activation of NADH-generating dehydrogenases found in metabolically active cells. Procedure: • 1.” for “• 1.”

[4] = system: human pro-myelocytic leukemia (HL-60 cells); assay: Inhibition of proliferation of HL-60 cells, Trypan Blue cell counts; assay type: cell-based; settings: 1400 micrograms/ml
Excerpt: […] Five ml of each pirfenidone concentration, and of the control were placed into a T25 tissue culture flask along with 1X10^5 cells. Every day for 4 days an aliquote from each flask was taken out, then stained with Trypan Blue, and counts were repeated three times on each aliquote.

[5] = system: HUMAN LEIOMYOMA CELLS; assay: Leiomyoma cell proliferation and viability, day 7 cell counts with Trypan Blue stain; assay type: cell-based; parameters: RECENT CELLS LEIOMYOMA: unit not given here; settings: for RECENT CELLS LEIOMYOMA: day 7 (control 0.0 MG: 9.0)
Procedure: Leiomyoma tissues were obtained from several premenopausal women with symptomatic uterine fibroids at elective hysterectomy, and who were not receiving any hormonal or other drug therapy. The fibroid tissues were minced into 1 - 2 mm\# explants and placed in suitable DMEM supplemented with 10% bovine serum. The fibroid tissue was digested for 14 -18 hours at 37 degrees C in an incubator. After centrifugation, a resulting cell pellet was resuspended in DMEM and then placed in culture flasks.
Leiomyoma cells were plated in 100mm dishes (100,000 each dish) and allowed to attach overnight in DMEM plus 10% fetal bovine serum until they reached 80-90% confluence.

Structure (SMILES)	clinical outcome [1]	inhibition at 900 µg/mL [2]	inhibition at 900 µg/mL [3]	Inhibition of proliferation as well as deaths of cells [4]	RECENT CELLS LEIOMYOMA ([5]; 0.01 MG/ML)	RECENT CELLS LEIOMYOMA ([5]; 0.1 MG/ML)	RECENT CELLS LEIOMYOMA ([5]; 0.3 MG/ML)	RECENT CELLS LEIOMYOMA ([5]; 1.0 MG/ML)	cytotoxicity at 1000 µg/mL ([5]; Homo sapiens, 168 h, read-out: percentage of dead leiomyoma cells)	inhibitory effect on proliferation ([5]; graded concentrations in the culture media, 7 days)
CC1=C(/C=C/C(C)=C/C=C/C(C)=C/C(=O)O)C(C)(C)CCC1 [All-trans-retinoic acid]	complete remission									
Cc1ccc(=O)n(-c2ccccc2)c1 [pirfenidone]		45%	75%	deaths of almost all cells	8.0	10.0	6.0	16.0	16%	significant inhibitory effect

From patent publication EP1242084B1, “TREATMENT OF BREAST CARCINOMAS, ASTROCYTOMAS, MELANOMAS AND RELATED TUMORS” (priority 2000, dated 2001)
